The target of one experiment is FGFR2 (Homo sapiens, UniProt P21802). The experiment is described as follows: FGFR wild type enzyme assay (HTRF KinEASE-TK), FGFR2. The conditions noted are these: Enz FGFR2 (nM).
FGFR2, sequence (P21802 399-821 limits assumed): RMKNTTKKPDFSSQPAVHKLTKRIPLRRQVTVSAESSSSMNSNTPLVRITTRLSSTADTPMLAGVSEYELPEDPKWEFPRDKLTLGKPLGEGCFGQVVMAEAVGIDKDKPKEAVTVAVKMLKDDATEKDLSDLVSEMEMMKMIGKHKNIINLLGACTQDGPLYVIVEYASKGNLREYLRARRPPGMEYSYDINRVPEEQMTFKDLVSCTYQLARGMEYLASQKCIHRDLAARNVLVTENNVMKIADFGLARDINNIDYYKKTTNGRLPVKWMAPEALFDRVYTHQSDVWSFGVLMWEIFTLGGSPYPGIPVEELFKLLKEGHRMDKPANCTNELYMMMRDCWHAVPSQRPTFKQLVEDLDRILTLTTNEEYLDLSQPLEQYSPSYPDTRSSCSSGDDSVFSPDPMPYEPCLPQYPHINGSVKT
What is called IC50 is the concentration at which inhibition is half-maximal. A lower IC50 goes with greater potency in that assay. The compound `Cc1c(-c2cc(Sc3ncccc3F)c3c(C#N)cnn3c2)cnn1C1CCN(CCO)CC1` [Example 108, 4-[(3-fluoro-2-pyridyl)sulfanyl]-6-[5-methyl-1-(1-methyl-4-piperidyl)pyrazol-4-yl]pyrazolo[1,5-a]pyridine3-carbonitrilee] displayed an IC50 of 2 nM.

`COCCN1CCC(n2ncc(-c3cc(Sc4ncccc4F)c4c(C#N)cnn4c3)c2C)CC1` [Example 109, 4-[(3-fluoro-2-pyridyl)sulfanyl]-6-[1-[1-(2-methoxyethyl)-4-piperidyl]-5-methyl-pyrazol-4-yl]pyrazolo[1,5-a]pyridine-3-carbonitrile] gave an IC50 of 2 nM.

`Cc1c(-c2cc(Sc3ncc(F)cc3F)c3c(C#N)cnn3c2)cnn1C1CCNCC1` [Example 110, 4-[(3,5-difluoro-2-pyridyl)sulfanyl]-6-[5-methyl-1-(4-piperidyl)pyrazol-4-yl]pyrazolo[1,5-a]pyridine-3-carbonitrile] returned an IC50 of 3 nM.

`Cc1ccc(F)c(Sc2cc(-c3cnn(C4CCN(C)CC4)c3C)cn3ncc(C#N)c23)n1` [Example 111, 4-[(3-fluoro-6-methyl-2-pyridyl)sulfanyl]-6-[5-methyl-1-(1-methyl-4-piperidyl)pyrazol-4-yl]pyrazolo[1,5-a]pyridine-3-carbonitrile] came in with an IC50 of 3 nM.

For `Cc1c(-c2cc(Sc3ccccc3C#N)c3c(C#N)cnn3c2)cnn1[C@@H]1CCCNC1` [Example 112, 4-(2-cyanophenyl)sulfanyl-6-[5-methyl-1-[(3R)-3-piperidyl]pyrazol-4-yl]pyrazolo[1,5-a]pyridine-3-carbonitrile], 2 nM corresponded to half-maximal inhibition (IC50).

`Cc1c(-c2cc(Sc3ncccc3F)c3c(C#N)cnn3c2)cnn1[C@H]1CC[C@@H](N(C)C)CC1` [Example 113]: the midpoint of inhibition, the IC50, lay at 1 nM.

On to `Cc1nc(Sc2cc(-c3cnn(C4CCNCC4)c3C)cn3ncc(C#N)c23)ccc1F` [Example 114, 4-[(5-fluoro-6-methyl-2-pyridyl)sulfanyl]-6-[5-methyl-1-(4-piperidyl)pyrazol-4-yl]pyrazolo[1,5-a]pyridine-3-carbonitrile], for which 3 nM corresponded to half-maximal inhibition (IC50).

`Cc1nc(Sc2cc(-c3cnn(C4CCNCC4)c3C)cn3ncc(C#N)c23)ccc1Cl` [Example 115, 4-[(5-chloro-6-methyl-2-pyridyl)sulfanyl]-6-[5-methyl-1-(4-piperidyl)pyrazol-4-yl]pyrazolo[1,5-a]pyridine-3-carbonitrile] yielded an IC50 of 1 nM.

For `Cc1cc(Sc2cc(-c3cnn(C4CCNCC4)c3C)cn3ncc(C#N)c23)c(F)cn1` [Example 116, -[(5-fluoro-2-methyl-4-pyridyl)sulfanyl]-6-[5-methyl-1-(4-piperidyl)pyrazol-4-yl]pyrazolo[1,5-a]pyridine-3-carbonitrile], the IC50 was determined as 45 nM.

As to `Cc1c(-c2cc(Sc3ccccc3F)c3c(C#N)cnn3c2)cnn1C1CCNCC1` [Example 118, 4-(2-fluorophenyl)sulfanyl-6-[5-methyl-1-(4-piperidyl)pyrazol-4-yl]pyrazolo[1,5-a]pyridine-3-carbonitrile], the IC50 stood at 1 nM. Against the preceding compound, the IC50 is about 45-fold lower.

`Cc1c(-c2cc(Sc3c(F)cccc3C#N)c3c(C#N)cnn3c2)cnn1C1CCN(C)CC1` [Example 119]: the IC50 stood at 1 nM.

In the case of `Cc1c(-c2cc(Sc3cccn4cncc34)c3c(C#N)cnn3c2)cnn1C1CCN(C)CC1` [Example 120, 4-imidazo[1,5-a]pyridin-8-ylsulfany1-6-[5-methyl-1-(1-methyl-4-piperidyl)pyrazol-4-yl]pyrazolo[1,5-a]pyridine-3-carbonitrile], the IC50 is 1 nM. In other words, the single-digit nanomolar range.

`Cc1nccc(Sc2cc(-c3cnn(C4CCNCC4)c3C)cn3ncc(C#N)c23)c1F` [Example 121] came in with an IC50 of 99 nM.

`Cc1c(-c2cc(Sc3ccccc3C#N)c3c(C#N)cnn3c2)cnn1[C@H]1CCNC1` [Example 122, 4-(2-cyanophenyl)sulfanyl-6-[5-methyl-1-[(3S)-pyrrolidin-3-yl]pyrazol-4-yl]pyrazolo[1,5-a]pyridine-3-carbonitrile] gave an IC50 of 1 nM.

The compound `Cc1c(-c2cc(Sc3ccc(Cl)cc3C#N)c3c(C#N)cnn3c2)cnn1C1CCNCC1` [Example 123, 4-(4-chloro-2-cyano-phenyl)sulfanyl-6-[5-methyl-1-(4-piperidyl)pyrazol-4-yl]pyrazolo[1,5-a]pyridine-3-carbonitrile] showed a half-maximal inhibitory concentration (IC50) of 9 nM.

In turn, `Cc1c(-c2cc(Sc3ccccc3C#N)c3c(C#N)cnn3c2)cnn1[C@H]1CC[C@@H](N(C)C)CC1` [Example 124] registered an IC50 of 1 nM.

On to `Cc1c(-c2cc(Sc3ccccc3F)c3c(C#N)cnn3c2)cnn1C1CCN(C)CC1` [Example 125], for which inhibition was half-maximal at 1 nM (IC50).

In turn, `CN1CCC[C@H]1C(=O)N1CCC(n2cc(-c3cc(Sc4ncccc4F)c4c(C#N)cnn4c3)cn2)CC1` [Example 126, 4-[(3-fluoro-2-pyridyl)sulfanyl]-6-[1-[1-[(2S)-1-methylpyrrolidine-2-carbonyl]-4-piperidyl]pyrazol-4-yl]pyrazolo[1,5-a]pyridine-3-carbonitrile] showed an IC50 of 1 nM.

Take `CN1CCC[C@@H]1C(=O)N1CCC(n2cc(-c3cc(Sc4ncccc4F)c4c(C#N)cnn4c3)cn2)CC1` [Example 127, 4-[(3-fluoro-2-pyridyl)sulfanyl]-6-[1-[1-[(2R)-1-methylpyrrolidine-2-carbonyl]-4-piperidyl]pyrazol-4-yl]pyrazolo[1,5-a]pyridine-3-carbonitrile]: the IC50 is 1 nM.

With `Cc1ccc(Sc2cc(-c3cnn(C4CCNCC4)c3C)cn3ncc(C#N)c23)nc1C` [Example 129], 2 nM corresponded to half-maximal inhibition (IC50).

The compound `Cc1c(-c2cc(Sc3cccc4c3ncn4C)c3c(C#N)cnn3c2)cnn1C1CCN(C)CC1` [Example 131, 4-(1-methylbenzimidazol-4-yl)sulfanyl-6-[5-methyl-1-(1-methyl-4-piperidyl)pyrazol-4-yl]pyrazolo[1,5-a]pyridine-3-carbonitrile] gave a 50% inhibitory concentration (IC50) of 40 nM.

With `Cc1c(-c2cc(Sc3cccc4ncn(C)c34)c3c(C#N)cnn3c2)cnn1C1CCN(C)CC1` [Example 132, 4-(3-methylbenzimidazol-4-yl)sulfanyl-6-[5-methyl-1-(1-methyl-4-piperidyl)pyrazol-4-yl]pyrazolo[1,5-a]pyridine-3-carbonitrile], it took 10 nM to reach half-maximal inhibition (IC50). Against the preceding compound, the IC50 is about 4-fold lower.

In turn, `Cc1c(-c2cc(Sc3cccc4c3cnn4C)c3c(C#N)cnn3c2)cnn1C1CCN(C)CC1` [Example 133, 4-(1-methylindazol-4-yl)sulfanyl-6-[5-methyl-1-(1-methyl-4-piperidyl)pyrazol-4-yl]pyrazolo[1,5-a]pyridine-3-carbonitrile] showed an IC50 of 6 nM.

In turn, `Cc1c(-c2cc(Sc3ccccc3F)c3c(C#N)cnn3c2)cnn1[C@H]1CCCNC1` [Example 134, 4-(2-fluorophenyl)sulfanyl-6-[5-methyl-1-[(3S)-3-piperidyl]pyrazol-4-yl]pyrazolo[1,5-a]pyridine-3-carbonitrile] gave an IC50 of 1 nM.

Still in this experiment, the particulars now being: Enz FGFR2 (nM), FGFR2 wild type enzyme.
`Cc1c(-c2cc(Sc3ccc(F)cc3C#N)c3c(C#N)cnn3c2)cnn1C1CCNCC1` [Example 135, 4-4-((2-cyano-4-fluorophenyl)thio)-6-(5-methyl-1-(piperidin-4-yl)-1H-pyrazol-4-yl)pyrazolo[1,5-a]pyridine-3-carbonitrile] returned an IC50 of 1 nM.

Consider `Cc1c(-c2cc(Sc3ccccc3F)c3c(C#N)cnn3c2)cnn1[C@@H]1CCCNC1` [Example 136, (R)-4-((2-fluorophenyl)thio)-6-(5-methyl-1-(piperidin-3-yl)-1H-pyrazol-4-yl)pyrazolo[1,5-a]pyridine-3-carbonitrile], for which the IC50 worked out at 4 nM.

In the case of `Cc1c(-c2cc(Sc3c(F)cccc3C#N)c3c(C#N)cnn3c2)cnn1C1CCNCC1` [Example 137, 4-((2-cyano-6-fluorophenyl)thio)-6-(5-methyl-1-(piperidin-4-yl)-1H-pyrazol-4-yl)pyrazolo[1,5-a]pyridine-3-carbonitrile], the IC50 worked out at 1 nM.

In the case of `Cc1c(-c2cc(Sc3ccccc3C#N)c3c(C#N)cnn3c2)cnn1C1CCN(CCO)CC1` [Example 138, 4-((2-cyanophenyl)thio)-6-(1-(1-(2-hydroxyethyl)piperidin-4-yl)-5-methyl-1H-pyrazol-4-yl)pyrazolo[1,5-a]pyridine-3-carbonitrile], the IC50 is 1 nM. This counts as single-digit nanomolar.

The compound `COCCN1CCC(n2ncc(-c3cc(Sc4ccccc4C#N)c4c(C#N)cnn4c3)c2C)CC1` [Example 139, 4-((2-cyanophenyl)thio)-6-(1-(1-(2-methoxyethyl)piperidin-4-yl)-5-methyl-1H-pyrazol-4-yl)pyrazolo[1,5-a]pyridine-3-carbonitrile] showed an IC50 of 1 nM.

In turn, `CO[C@H](C)CN1CCC(n2ncc(-c3cc(Sc4ccccc4C#N)c4c(C#N)cnn4c3)c2C)CC1` [Example 140, (R)-4-((2-cyanophenyl)thio)-6-(1-(1-(2-methoxypropyl)piperidin-4-yl)-5-methyl-1H-pyrazol-4-yl)pyrazolo[1,5-a]pyridine-3-carbonitrile] came in with an IC50 of 1 nM.

The compound `Cc1c(-c2cc(Sc3ccccc3C#N)c3c(C#N)cnn3c2)cnn1C1CCN(C[C@@H](C)O)CC1` [Example 141, (R)-4-((2-cyanophenyl)thio)-6-(1-(1-(2-hydroxypropyl)piperidin-4-yl)-5-methyl-1H-pyrazol-4-yl)pyrazolo[1,5-a]pyridine-3-carbonitrile] yielded an IC50 of 1 nM. In other words, the single-digit nanomolar range.

Consider `Cc1c(-c2cc(Sc3ccccc3C#N)c3c(C#N)cnn3c2)cnn1C1CCN(C[C@H](C)O)CC1` [Example 142, (S)-4-((2-cyanophenyl)thio)-6-(1-(1-(2-hydroxypropyl)piperidin-4-yl)-5-methyl-1H-pyrazol-4-yl)pyrazolo[1,5-a]pyridine-3-carbonitrile], for which half-maximal inhibition (IC50) was put at 13 nM.

In turn, `Cc1c(-c2cc(Sc3ncccc3F)c3c(C#N)cnn3c2)cnn1C1CCN(C[C@@H](C)O)CC1` [Example 143, (R)-4-((3-fluoropyridin-2-yl)thio)-6-(1-(1-(2-hydroxypropyl)piperidin-4-yl)-5-methyl-1H-pyrazol-4-yl)pyrazolo[1,5-a]pyridine-3-carbonitrile] yielded an IC50 of 2 nM.
